These results are taken from paper PMC12090178, “Exploring the Potential of Homologous Recombination Protein PALB2 in Synthetic Lethal Combinations” (ACS Chemical Biology, 2025).

One data set deals with SmBiT-PALB2. As to the kind of experiment: NanoBit protein-protein interaction assay in HEK293 cells. The conditions noted are these: BRCA2 peptide fused to LgBiT, HEK293, 24 h after transfection, signal normalized to empty vector. The data set is classed as cell-based. As for the experimental part: The NanoBit CMV MCS BiBiT-Ready Vector (Promega) was modified to express PALB2 with a C-Terminal SmBit and the BRCA2 N-terminal peptide with a N-terminal LgBit. 5000 HEK293 cells were seeded in each well of a 96-well plate with a white bottom and grown for 24 h with cell medium (DMEM supplemented with 10% FCS at 37 °C with 5% CO2). The plasmid (100 ng) was transfected with FuGene HD (Promega, E5911) and incubated for 24 h. Then, Nano-Glo Live cell assay substrate (Promega) was added and the luminescence signal was recorded for 1000 ms. Signal was normalized to empty vector.
3 PALB2-BRCA2 interaction assays
0.5 million HEK293 cells were seeded per well in a 6-well plate. After 24 h, 2 μg of plasmid pCMV-FLAG-PALB2-IKZF3d or pCMV-FLAG-GFP-IKZF3d (control group) was transiently transfected with TurboFect (Thermo Scientific, e.g. R0531 or R0533) int o each well . After 36 h , the medium of at least 3 wells was removed. The cells were washed once with cold PBS on ice. […] The samples were analyzed by Western Blot. […]
NanoBiT CMV MCS BiBiT-Ready Vector (Promega) was used to construct a plasmid that can express LgBit fusion and SmBit fusion at the same time in cells. […] 24 hours after transfection, the luminescence signal of each well was obtained by adding Nano-Glo Live Cell Assay System (Promega) and the signal was read on a T e can S p ark 10M ( Tecan) for 1000 ms without temperature control.

The target of data set [1] is PALB2 C-terminal WD40 domain. The conditions noted are these: previous structural work; read-out: binding affinity to PALB2; cited from earlier work. The protocol: Previous structural work on the PALB2 C-terminal WD40 domain identified a small fragment of BRCA2 (residues 21–39) with an approximately 600 nM binding affinity (600 nM) to PALB2 (see Figure 2A for structure).[16] […] Binding of the BRCA2(21–39) peptide using fluorescence polarization (FP) with fluorescein (FAM) indeed gave a value in close alignment with the previous report (Figure 2B).[16] Building from this observation we further characterized the binding of amino acids 1 ...

Another data set relates to PALB2-IKZF3d. The experiment in a line: IMiD-induced degradation of PALB2-IKZF3d (Western blot). The format is cell-based. The note with it: for degradation of PALB2 in IKZF3d knock-in cells: homozygous IKZF3d knock-in HEK293 cells, 24 h treatment. As for the experimental part: 5.1 Degradation of PALB2 and UPP rescue assays
To show PALB2 deegradation, cells were treated with pomalidomide at the indicated concentrations for 24 h. The cells were subsequently lysed and prepared for gel electrophoresis and western blotting.
To show UPP rescue, MG132 and MLN4924 were used to inhibit the ubiquitination-proteasome degradation pathway. The cells were first treated with 1 μM MG132 or 1 μM MLN4924. After 6 h, pomalidomide was added to a final concentration of 10 μM. After 18 h, the cells were collected and lysed.
To show PALB2 recovery, the cells were first treated with 10 μM pomalidomide or 10 μM iberdomide for 24 h. After that, the culture medium was removed, the cells were washed three times with fresh culture medium and then cultured with culture medium without IMiDs.
The cells were then collected an d l yse d . […]
Figure S7. A). Degradation of endogenous PALB2.
B). PALB2 de gra dation rescue expe ri ment. The cells in the degradation rescue group w ere first t reated with 1 μ M MG132 and 1 μ M M LN49 24 for 6 hou rs and then t reated with 10 μ M pomalidomide for 1 8 hours. Cell samples were collected for WB analysis. The asterisk represents a nonspecific band of PALB 2 with t his antibody. […]
For orientation: Immunoblotting shows a protein as a band on a membrane.

The test system of data set [2] is homologous recombination repair (DR-GFP reporter). The experiment in a line: DR-GFP reporter assay of homologous recombination. The format is cell-based. As for the experimental part: DR-GFP plasmid[53] (a gift from Maria Jasin, Addgene plasmid #26475; RRID/Addgene_26475) was transfected into HEK293 cells with TurboFect (Thermo Scientific) at 70% confluency and selected with hygromycin (0.1 g/L, Invivogen) after 48 h. Transfected cells were moved to a 150 mm cell culture dish and cultured in DMEM medium with hygromycin (0.1 g/L). After obtaining cells carrying the DR-GFP reporter, the cells were treated with Pom for 24 h. Cells were then transfected with a modified pCBASceI[53] (a gift from Maria Jasin, Addgene plasmid #26477; RRID/Addgene_26477, I-SceI was expressed with P2A-mCherry to select for positively transfected cells) to introduce DSB at the I-SceI site in inserted DR-GFP plasmid. Four days after transfection, cells were resuspended in PBS and analyzed by flow cytometry.
6 Homologous recombination assay […]
(§1) After obtaining cells carrying the DR-GFP reporter, cells were maintained in medium with 10 µM pomalidomide for 24 hours. […] Four days after transfection, cells were resuspended in PBS and analyzed by flow cytometry using a BD LSR Fortessa. […]
(§2) primary antibody incubation, coverslips were washed 3 times with PBS. […] Fluorescence images were taken by confocal microscopy (LEICA POINT SCANNING CONFOCAL SP8). RAD51 f o ci numbers in each cell we re counted with Fiji ImageJ.

Another data set relates to Rad51 foci. The experiment in a line: Rad51 foci assay. The conditions noted are these: Pom 10 μM 24 h, then CPT 10 nM 12 h. The format is cell-based. As for the experimental part:
50,000 cells (WT HEK293 or HEK293-PALB2^IKZF 3d/IKZF 3d) were seeded on coverslips and cultured with Pom (10 μM). After 24 h, CPT was added (10 nM). […] After removing the BSA-containing PBS, coverslips were incubated with primary antibody (Alexa Fluor 488 Anti-Rad51 antibody [EPR4030(3)] (Abcam, ab309674, RRID/AB_3675862), 1:500 in PBS) for 2 h and washed with PBS (3 times). Then, coverslips were mounted with antifade mountant with DAPI (Invitrogen) and fluorescence images were recorded by confocal microscopy (Leica Point Scanning Confocal SP8). Rad51 foci numbers in each cell were counted with Fiji ImageJ.
6 Homologous recombination assay
DR-GFP1 substrate (a gift from Maria Jasin, Addgene plasmid #26475; RRID:Addgene_26475) is flanked by human AAVS1 homology arms. Endogenous AAVS1 promoter drives T2A-hygromycin expression after integration. PX458-AAVS1 (#113194, Addgene) encodes sgRNA for human AAVS1 and expresses Cas9 nuclease. […]
as §1, §2

Data set [3] concerns HEK293 PALB2 IKZF3d/IKZF3d knock-in cells. As to the kind of experiment: Cell viability assay (WST-1). The format is cell-based. The note with it: 4 days (96 h), Pom 0, 5, 10 and 40 μM, WST-1. On the technique in general: Tetrazolium assays rely on reduction of a dye to a coloured formazan, in cell work by metabolically active cells.
The target in data set [4] is BRCA2 21-39 (Homo sapiens) (UniProt P51587). The conditions noted are these: cited from earlier work.
In data set [5] the target is T1, PALB2 C-terminal WD40 domain (UniProt Q86YC2 835-1186).
T1 construct: PALB2 (partner and localizer of BRCA2), C-terminal WD40 beta-propeller domain; as I recall that construct spans about residues 835-1186; methods are in the Supporting Information; also called PALB2 C-terminal domain
T1 sequence: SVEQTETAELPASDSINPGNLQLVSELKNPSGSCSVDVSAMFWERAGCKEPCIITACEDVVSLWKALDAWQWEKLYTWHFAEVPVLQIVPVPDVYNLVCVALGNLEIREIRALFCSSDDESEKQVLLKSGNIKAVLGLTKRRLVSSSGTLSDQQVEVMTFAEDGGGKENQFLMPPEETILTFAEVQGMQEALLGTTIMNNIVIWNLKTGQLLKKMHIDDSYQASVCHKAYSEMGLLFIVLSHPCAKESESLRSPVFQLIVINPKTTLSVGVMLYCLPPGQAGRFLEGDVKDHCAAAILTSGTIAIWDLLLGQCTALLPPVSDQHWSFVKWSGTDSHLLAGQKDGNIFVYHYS
As to the kind of experiment: fluorescence polarisation; not told for these peptides whether direct (labelled peptide) or displacement (dark peptide at 10 μM added to the PALB2C dilution series with 10 nM fluorescent peptide; competitive binding model); 25 °C. The note with it: both partners purified. Background: In fluorescence polarisation assays a small probe gives low polarisation when free and higher when bound to something large.

Entries after “also recorded” stand apart in the source; their conditions may differ. Where no end group is shown, it is not given here.

Turning to “W31R mutation of the BRCA(21–39) peptide: point mutated BRCA2 peptide (21-39, W31R) fused with LgBit; negative control (KADLGPISLNRFEELSSEA; also: fused with LgBiT)”, the “NanoBit interaction signal with PALB2” value with SmBiT-PALB2 is listed as “complete loss of the interaction signal”.

As to “BRCA2 (residues 21–39): small fragment of BRCA2 (residues 21-39) from previous structural work (fluorescein-GGKADLGPISLNWFEELSSEA)”, the Kd in data set [1] is ~600 nM.

Turning to `Nc1cccc2c1C(=O)N(C1CCC(=O)NC1=O)C2=O` (stereo not shown) [Pom, pomalidomide], in the data set on PALB2-IKZF3d (10 μM IMiD for 24 h, then medium removed and cells washed, knock-in cells), the “recovery of PALB2 levels after wash out” value is “PALB2 levels recover after 24 h”. In the data set with PALB2-IKZF3d (HEK293, transient transfection, 10 μM pomalidomide, 24 h), the “degradation of transiently expressed PALB2-IKZF3d fusion” value is recorded as “occurred only with the C-terminal fusion; also recorded: shows degradation”. In addition, the “degradation of PALB2 in IKZF3d knock-in cells” value in the data set with PALB2-IKZF3d was “significant degradation of PALB2”; with PALB2-IKZF3d (listed as pomalidomide) it was “degrade most of the endogenous PA LB2”. Further, the “GFP-positive cells (DR-GFP)” value in data set [2] (HEK293 wild-type cells, Pom vs DMSO control) is listed as “remained largely unchanged”; in data set [2] (PALB2 IKZF3d/IKZF3d cells, 10 μM Pom 24 h before I-SceI transfection, flow cytometry after 4 days), “notable decrease in GFP-positive cells”. Also, the “number of Rad51 foci formed in response to DSBs by camptothecin” value in the data set on Rad51 foci (PALB2 IKZF3d/IKZF3d cells) is reported as “significantly decrease”. Moreover, the “compromised Rad51 foci formation” value in the data set on Rad51 foci (PALB2 wild-type cells) is listed as “not observed”. In data set [3], the “viability of WT and KI cell lines with Pom alone” value is listed as “did not show strong differences”.

Take PALB2 WD40 (from UniProt Q86YC2): in data set [4], the Kd is 600 nM.

B1: BRCA(23–33) (peptide, UniProt P51587 23-33, looked up)
peptide: DLGPISLNWFE
notes: BRCA2 residues 23-33; Rink amide beads: probably a C-terminal amide (my surmise); also called absolute minimal peptide; source: synthetic peptide (SPPS, preparative HPLC)
In data set [5], B1 displayed a Kd of 8000 nM.
